Measurements from US20230416225A1, “DIAMINOPYRIMIDINE CARBOXAMIDE INHIBITORS OF HPK1” (MERCK SHARP & DOHME LLC, priority 2020, published 2023).

Target: T1, Human HPK1, catalytic domain (Homo sapiens, UniProt Q92918)
T1 construct: purchased Carna
T1 sequence (Q92918 1-346): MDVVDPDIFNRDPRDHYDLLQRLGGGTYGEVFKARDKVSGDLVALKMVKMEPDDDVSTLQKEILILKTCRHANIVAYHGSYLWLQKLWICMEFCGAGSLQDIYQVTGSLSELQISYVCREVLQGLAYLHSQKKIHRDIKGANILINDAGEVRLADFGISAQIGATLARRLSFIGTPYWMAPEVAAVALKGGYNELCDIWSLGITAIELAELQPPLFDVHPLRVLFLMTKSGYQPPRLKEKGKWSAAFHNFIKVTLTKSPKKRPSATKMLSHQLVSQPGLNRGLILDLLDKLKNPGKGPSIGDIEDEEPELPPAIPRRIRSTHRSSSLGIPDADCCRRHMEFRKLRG
Assay: HPK1-SLP76 TR-FRET assay
Assay type: biochemical
Details: 75 pM HPK1, 10 uM ATP, 10 nM SLP76, 30 min compound pre-incubation

Row | IC50 [nM] | SMILES
1 | 4.89 | COc1cc2c(cc1Nc1ncc(C(N)=O)c(NCc3nccs3)n1)CN(C)CC2 [Example 26-60, 2-[(6-methoxy-2-methyl-1,2,3,4-tetrahydroisoquinolin-7-yl)amino]-4-{[(1,3-thiazol-2-yl)methyl]amino}pyrimidine-5-carboxamide]
2 | 81.6 | Cc1cccc(F)c1Nc1nc(Nc2ccc(S(C)(=O)=O)cc2)ncc1C(N)=O [Example 4-25, 4-[(2-fluoro-6-methylphenyl)amino]-2-{[4-(methylsulfonyl)phenyl]amino} pyrimidine-5-carboxamide]
3 | 1.96 | COc1cc2c(cc1Nc1ncc(C(N)=O)c(Nc3ccccc3Br)n1)CN(C(=O)C1(N(C)C)CCC1)CC2 [Example 12-7, 4-[(2-bromophenyl)amino]-2-({2-[1-(dimethylamino)cyclobutane-1-carbonyl]-6-methoxy-1,2,3,4-tetrahydroisoquinolin-7-yl}amino)pyrimidine-5-carboxamide]
4 | 5.18 | COc1cc2c(cc1Nc1ncc(C(N)=O)c(NC3CCC(OC)CC3)n1)CN(C)CC2 (centres unmarked) [Example 26-31, 4-[(4-methoxycyclohexyl)amino]-2-[(6-methoxy-2-methyl-1,2,3,4-tetrahydroisoquinolin-7-yl)amino]pyrimidine-5-carboxamide]
5 | 0.48 | COc1cc2c(cc1Nc1ncc(C(N)=O)c(Nc3cccc4c3CCN(C(C)=O)C4)n1)CN(C)CC2 [Example 15-1, 4-[(2-acetyl-1,2,3,4-tetrahydroisoquinolin-5-yl)amino]-2-[(6-methoxy-2-methyl-1,2,3,4-tetrahydroisoquinolin-7-yl)amino]pyrimidine-5-carboxamide]
6 | 1.02 | COc1cc2c(cc1Nc1ncc(C(N)=O)c(N[C@@H]3CCCC[C@H]3CO)n1)CN(C)CC2 [Example 26-32, 4-{[(1R,2R)-2-(hydroxymethyl)cyclohexyl]amino}-2-[(6-methoxy-2-methyl-1,2,3,4-tetrahydroisoquinolin-7-yl)amino]pyrimidine-5-carboxamide]
7 | 18.1 | COc1cc2c(cc1Nc1ncc(C(N)=O)c(NC3CCC(c4ccccc4)C3)n1)CN(C)CC2 (centres unmarked) [Example 26-12, 2-[(6-methoxy-2-methyl-1,2,3,4-tetrahydroisoquinolin-7-yl)amino]-4-[(3-phenylcyclopentyl)amino]pyrimidine-5-carboxamide]
8 | 249 | Cn1ncc(Nc2ncc(C(N)=O)c(Nc3cccc4c3CCNC4=O)n2)c1C(F)(F)F [Example 7-56, 2-{[1-methyl-5-(trifluoromethyl)-1H-pyrazol-4-yl]amino}-4-[(1-oxo-1,2,3,4-tetrahydroisoquinolin-5-yl)amino]pyrimidine-5-carboxamide]
9 | 0.45 | COc1cc2c(cc1Nc1ncc(C(N)=O)c(Nc3c(F)cc(F)cc3Cl)n1)CN(C)CC2 [Example 4-21, 4-[(2-chloro-4,6-difluorophenyl)amino]-2-[(6-methoxy-2-methyl-1,2,3,4-tetrahydroisoquinolin-7-yl)amino]pyrimidine-5-carboxamide]
10 | 443 | Cc1cccc(F)c1Nc1nc(Nc2cnn(CC(C)(C)O)c2)ncc1C(N)=O [Example 4-23, 4-[(2-fluoro-6-methylphenyl)amino]-2-{[1-(2-hydroxy-2-methylpropyl)-1H-pyrazol-4-yl]amino}pyrimidine-5-carboxamide]
11 | 23.6 | COc1cc2c(cc1Nc1ncc(C(=O)NN)c(Nc3ccccc3)n1)CN(C)CC2 [Example 18-1, 2-((6-Methoxy-2-methyl-1,2,3,4-tetrahydroisoquinolin-7-yl)amino)-4-(phenylamino)pyrimidine-5-carbohydrazide]
12 | 0.55 | NC(=O)c1cnc(Nc2cnn(C3CCNCC3)c2)nc1Nc1cccc2c1CCNC2=O [Example 7-52, 4-[(1-oxo-1,2,3,4-tetrahydroisoquinolin-5-yl)amino]-2-{[1-(piperidin-4-yl)-1H-pyrazol-4-yl]amino}pyrimidine-5-carboxamide]
13 | 0.44 | COCCN1CCc2cc(OC)c(Nc3ncc(C(N)=O)c(Nc4ccccc4Br)n3)cc2C1 [Example 10-1, 4-[(2-bromophenyl)amino]-2-{[6-methoxy-2-(2-methoxyethyl)-1,2,3,4-tetrahydroisoquinolin-7-yl]amino}pyrimidine-5-carboxamide]
14 | 0.41 | COc1cc2c(cc1Nc1ncc(C(N)=O)c(Nc3cccc(C4(C#N)CC4)c3)n1)CN(C)CC2 [Example 7-32, 4-{[3-(1-cyanocyclopropyl)phenyl]amino}-2-[(6-methoxy-2-methyl-1,2,3,4-tetrahydroisoquinolin-7-yl)amino]pyrimidine-5-carboxamide]
15 | 0.26 | COc1cc2c(cc1Nc1ncc(C(N)=O)c(Nc3ccccc3OC(C)C)n1)CN(C)CC2 [Example 7-111, 2-[(6-methoxy-2-methyl-1,2,3,4-tetrahydroisoquinolin-7-yl)amino]-4-({2-[(propan-2-yl)oxy]phenyl}amino)pyrimidine-5-carboxamide]
16 | 54.8 | COc1cc2c(cc1Nc1ncc(C(N)=O)c(Nc3ccccc3C(=O)Nc3ccccc3)n1)CN(C)CC2 [Example 7-117, 2-((6-methoxy-2-methyl-1,2,3,4-tetrahydroisoquinolin-7-yl)amino)-4-((2-(phenylcarbamoyl)phenyl)amino) pyrimidine-5-carboxamide]
17 | 0.71 | COCCOCCOCCCN1CCc2cc(OC)c(Nc3ncc(C(N)=O)c(Nc4ccccc4Br)n3)cc2C1 [Example 9-5, 4-((2-bromophenyl)amino)-2-((6-methoxy-2-(3-(2-(2-methoxyethoxy)ethoxy)propyl)-1,2,3,4-tetrahydroisoquinolin-7-yl)amino)pyrimidine-5-carboxamide]
18 | 0.64 | COc1cc2c(cc1Nc1ncc(C(N)=O)c(Nc3ccccc3-c3ncco3)n1)CN(C)CC2 [Example 14-3, 2-[(6-methoxy-2-methyl-1,2,3,4-tetrahydroisoquinolin-7-yl)amino]-4-{[2-(1,3-oxazol-2-yl)phenyl]amino}pyrimidine-5-carboxamide]
19 | 5.66 | COc1cc2c(cc1Nc1ncc(C(N)=O)c(Nc3c4c(nn3C)CCC4)n1)CN(C)CC2 [Example 7-84, 2-((6-methoxy-2-methyl-1,2,3,4-tetrahydroisoquinolin-7-yl)amino)-4-((2-methyl-2,4,5,6-tetrahydrocyclopenta[c]pyrazol-3-yl)amino)pyrimidine-5-carboxamide]
20 | 14 | NC(=O)c1cnc(Nc2ccc(C3CC3)cc2)nc1Nc1cccc2c1CCNC2=O [Example 25-13, 2-[(4-cyclopropylphenyl)amino]-4-[(1-oxo-1,2,3,4-tetrahydroisoquinolin-5-yl)amino]pyrimidine-5-carboxamide]
21 | 0.5 | COc1cc2c(cc1Nc1ncc(C(N)=O)c(Nc3cccc4nn[nH]c34)n1)CN(C)CC2 [Example 7-5, 4-[(1H-benzotriazol-7-yl)amino]-2-[(6-methoxy-2-methyl-1,2,3,4-tetrahydroisoquinolin-7-yl)amino]pyrimidine-5-carboxamide]
22 | 1.44 | COc1cc2c(cc1Nc1ncc(C(N)=O)c(Nc3ccccc3CN3CCOCC3)n1)CN(C)CC2 [Example 7-99, 2-[(6-methoxy-2-methyl-1,2,3,4-tetrahydroisoquinolin-7-yl)amino]-4-({2-[(morpholin-4-yl)methyl]phenyl}amino)pyrimi-dine-5-carboxamide]
23 | 11.7 | COc1cc(C2CCNCC2)ccc1Nc1ncc(C(N)=O)c(Nc2ccccc2C(F)(F)F)n1 [Example 8-2, 2-((2-methoxy-4-(piperidin-4-yl)phenyl)amino)-4-((2-(trifluoromethyl)phenyl)amino)pyrimidine-5-carboxamide]
24 | 1.01 | COc1cc2c(cc1Nc1ncc(C(N)=O)c(Nc3c(O)cccc3F)n1)CN(C)CC2 [Example 4-17, 4-[(2-fluoro-6-hydroxyphenyl)amino]-2-[(6-methoxy-2-methyl-1,2,3,4-tetrahydroisoquinolin-7-yl)amino]pyrimidine-5-carboxamide]
25 | 0.61 | C#Cc1ccccc1Nc1nc(Nc2cc3c(cc2OC)CCN(C)C3)ncc1C(N)=O [Example 7-102, 4-[(2-ethynylphenyl)amino]-2-[(6-methoxy-2-methyl-1,2,3,4-tetrahydroisoquinolin-7-yl)amino]pyrimidine-5-carboxamide]
26 | 344 | COc1cc2c(cc1Nc1ncc(C(N)=O)c(Nc3ccccc3Br)n1)CN(C(=O)C1(C)CCC1)CC2 [Example 12-8, 4-[(2-bromophenyl)amino]-2-{[6-methoxy-2-(1-methylcyclobutane-1-carbonyl)-1,2,3,4-tetrahydroisoquinolin-7-yl]amino}pyrimidine-5-carboxamide]
27 | 27.7 | COc1cc2c(cc1Nc1ncc(C(N)=O)c(Nc3ccccc3Br)n1)CN(C(=O)C1(C(F)(F)F)CCC1)CC2 [Example 12-6, 4-[(2-bromophenyl)amino]-2-({6-methoxy-2-[1-(trifluoromethyl)cyclobutane-1-carbonyl]-1,2,3,4-tetrahydroisoquinolin-7-yl}amino)pyrimidine-5-carboxamide]
28 | 0.24 | CC(N)c1cccc(Nc2nc(Nc3cc4c(cc3F)CCN(C)C4)ncc2C(N)=O)c1 (centres unmarked) [Example 2-7, 4-{[3-(1-aminoethyl)phenyl]-amino}-2-[(6-fluoro-2-methyl-1,2,3,4-tetrahydroisoquinolin-7-yl)amino]pyrimidine-5-carboxamide]
29 | 468 | CCC1[C@@H](C(=O)Nc2ncc(C(N)=O)c(Nc3ccccc3Br)n2)[C@@H]1c1cnn(C)c1 (stereo partly drawn) [Example 22-2, 4-[(2-bromophenyl)amino]-2-{[(1R,3R)-2-ethyl-3-(1-methyl-1H-pyrazol-4-yl)cyclopropane-1-carbonyl]amino}pyrimidine-5-carboxamide]
